Results published in patent US11945768B1, “8-(3-flurobenzylideneamino)naphthalene-1,3-disulfonic acid as an antioxidant compound” (KING FAISAL UNIVERSITY, priority 2023, dated 2024).

Experiment: DPPH radical scavenging antioxidant test (in vitro)
Type: biochemical
Conditions: 517 nm; for Inhibition (radical scavenging inhibition): 0.2 mL DPPH (0.75 mM), compound 3 μM in ethanol, 30 minutes incubation in the dark
Method: The antioxidant properties of the 8-(3-flurobenzylideneamino)naphthalene-1,3-disulfonic acid compound were studied by adding 0.2 mL DPPH (0.75 mM)) 8-(3-flurobenzylideneamino)naphthalene-1,3-disulfonic acid (III) (3 μM) in ethanol. After 30 minutes of incubation in the dark, the absorbance was read against a blank at 517 nm. Ascorbic acid (vitamin C) was used as standard antioxidants (positive control). A blank sample was prepared by 0.2 ml of DPPH in 3 mL ethanol. A negative control sample was run using ethanol instead of the sample. The radical scavenging inhibition was calculated using the following equation: […]
The antioxidant activity for the synthesized compound is listed in Table 1, using Vitamin C as a reference.

| SMILES | Inhibition (radical scavenging inhibition) [%] | antioxidant potential in DPPH test compared to vitamin C (in words) (DPPH in vitro test, vitamin C as positive control) |
| --- | --- | --- |
| O=C1O[C@H]([C@@H](O)CO)C(O)=C1O [vit c, Ascorbic acid, reference compound] | 74 |  |
| O=S(=O)(O)c1cc(S(=O)(=O)O)c2c(/N=C/c3cccc(F)c3)cccc2c1 [Product III, 8-(3-flurobenzylideneamino)naphthalene-1,3-disulfonic acid] | 52 | high potential as an antioxidant compared to vitamin C |
